Molecular target: recombinant Human Phosphodiesterase B2 (PDE4B2) (Homo sapiens, UniProt Q07343)
Experiment: Human Phosphodiesterase B2 Alpha Screen Assay
Format: biochemical
Conditions: Alpha Screen cAMP assay
Procedure: Human Phosphodiesterase B2 Alpha Screen Assay
The assay uses recombinant Human Phosphodiesterase B2 (PDE4B2) produced in house (PrAZL0133), stored at −20° C. The substrate uses cAMP, part of the Alpha Screen cAMP kit (Perkin Elmer, Cat# 6760625M), stored at 4° C. The Alpha Screen kit also includes biotinylated cAMP, acceptor and donor beads.
The assay additions were as follows: Test compounds and controls were added to white 384-well flat-bottom plates (Greiner, Cat# 781075), 0.2 μl in 100% DMSO, followed by 10 μl PDE4B2 in reaction buffer. The reaction buffer constitution was: 50 mM Tris (pH 7.5), 8.3 mM MgCl2, 1.7 mM EGTA and 0.01% (w/v) Brij®35. The enzyme and the compounds were incubated at room temperature for 15 minutes. Then 10 μl cAMP in reaction buffer was added. The assay was stopped after 60 minutes incubation at room temperature by adding 10 μl acceptor beads in detection buffer with 40 mM EDTA. The detection buffer constitution was: 5 mM Tris (pH 7.5), 0.1% (w/v) BSA and 0.1% (v/v) Tween 20. This addition followed by an addition of 10 μl donor beads in detection buffer, with biotinylated cAMP. The plates were then incubated, dark at room temperature, for 5 hours followed by measurement on a Fusion™-α analyser. IC50 values (presented in Table 4) were determined using Xlfit curve fitting using model 205.

Sequence of recombinant Human Phosphodiesterase B2 (PDE4B2) (Q07343 1-564 isoform Q07343-2): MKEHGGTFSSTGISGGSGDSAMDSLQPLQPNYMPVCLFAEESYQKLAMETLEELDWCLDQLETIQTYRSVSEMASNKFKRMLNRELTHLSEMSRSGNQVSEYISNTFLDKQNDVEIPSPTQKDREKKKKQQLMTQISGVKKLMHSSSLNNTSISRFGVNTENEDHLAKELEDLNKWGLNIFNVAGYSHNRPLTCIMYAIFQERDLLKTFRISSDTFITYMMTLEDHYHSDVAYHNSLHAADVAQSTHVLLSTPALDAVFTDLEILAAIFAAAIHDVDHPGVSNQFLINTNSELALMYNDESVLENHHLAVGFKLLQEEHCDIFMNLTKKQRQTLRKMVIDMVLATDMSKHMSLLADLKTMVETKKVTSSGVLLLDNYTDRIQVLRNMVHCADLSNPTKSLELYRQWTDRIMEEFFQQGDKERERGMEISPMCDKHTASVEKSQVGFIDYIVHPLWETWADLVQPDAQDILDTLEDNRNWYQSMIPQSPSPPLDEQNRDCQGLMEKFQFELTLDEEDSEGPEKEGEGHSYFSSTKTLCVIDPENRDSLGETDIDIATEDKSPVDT

Row | IC50 | SMILES
1 | 0.877 nM | O=C(N[C@H]1CC[C@@H](n2c(=O)c3cc(F)cnc3n(C3CCSCC3)c2=O)CC1)C(O)c1ccccc1 (relative stereo) [Example 22, N-{cis-4-[6-fluoro-2,4-dioxo-1-(tetrahydro-2H-thiopyran-4-yl)-1,4-dihydropyrido[2,3-d]pyrimidin-3(2H)-yl]cyclohexyl}-2-hydroxy-2-phenylacetamide]
2 | 10.7 nM | O=C(N[C@H]1CC[C@@H](n2c(=O)c3cc(F)cnc3n(C3CCSC3)c2=O)CC1)C1CC1 (relative stereo) [Example 27, N-{cis-4-[6-fluoro-2,4-dioxo-1-(tetrahydro-3-thienyl)-1,4-dihydropyrido[2,3-d]pyrimidin-3(2H)-yl]cyclohexyl}cyclopropanecarboxamide]
3 | 0.97 nM | O=C(N[C@H]1CC[C@@H](n2c(=O)c3cc(F)cnc3n(C3CCSC3)c2=O)CC1)c1cn2ccccc2n1 (relative stereo) [Example 28, N-{cis-4-[6-fluoro-2,4-dioxo-1-(tetrahydro-3-thienyl)-1,4-dihydropyrido[2,3-d]pyrimidin-3(2H)-yl]cyclohexyl}imidazo[1,2-a]pyridine-2-carboxamide]
4 | 5.51 nM | O=C(N[C@H]1CC[C@@H](n2c(=O)c3cc(F)cnc3n(C3CCSC3)c2=O)CC1)c1cc(CO)ccc1O (relative stereo) [Example 29, N-{cis-4-[6-fluoro-2,4-dioxo-1-(tetrahydro-3-thienyl)-1,4-dihydropyrido[2,3-d]pyrimidin-3(2H)-yl]cyclohexyl}-2-hydroxy-5-(hydroxymethyl)benzamide]
5 | 6.45 nM | O=C(N[C@H]1CC[C@@H](n2c(=O)c3cc(F)cnc3n(C3CCSC3)c2=O)CC1)c1ccccc1O (relative stereo) [Example 30, N-{cis-4-[6-fluoro-2,4-dioxo-1-(tetrahydro-3-thienyl)-1,4-dihydropyrido[2,3-d]pyrimidin-3(2H)-yl]cyclohexyl}-2-hydroxybenzamide]
6 | 2.75 nM | Cc1ccc(C(=O)N[C@H]2CC[C@@H](n3c(=O)c4cc(F)cnc4n(C4CCSC4)c3=O)CC2)c(O)c1 (relative stereo) [Example 31, N-{cis-4-[6-fluoro-2,4-dioxo-1-(tetrahydro-3-thienyl)-1,4-dihydropyrido[2,3-d]pyrimidin-3(2H)-yl]cyclohexyl}-2-hydroxy-4-methylbenzamide]
7 | 4.59 nM | O=C(N[C@H]1CC[C@@H](n2c(=O)c3cc(F)cnc3n(C3CCSCC3)c2=O)CC1)C1CC1 [Example 1, N-{cis-4-[6-Fluoro-2,4-dioxo-1-(tetrahydro-2H-thiopyran-4-yl)-1,4-dihydropyrido[2,3-d]pyrimidin-3(2H)-yl]cyclohexyl}cyclopropanecarboxamide]
8 | 1.1 nM | O=C(N[C@H]1CC[C@@H](n2c(=O)c3cc(F)cnc3n(C3CCSCC3)c2=O)CC1)c1cn2ccccc2n1 [Example 2, N-{cis-4-[6-Fluoro-2,4-dioxo-1-(tetrahydro-2H-thiopyran-4-yl)-1,4-dihydropyrido[2,3-d]pyrimidin-3(2H)-yl]cyclohexyl}imidazo[1,2-a]pyridine-2-carboxamide]
9 | 1.31 nM | O=C(N[C@H]1CC[C@@H](n2c(=O)c3cc(F)cnc3n(C3CCSCC3)c2=O)CC1)c1cccc2cccnc12 [Example 3, N-{cis-4-[6-fluoro-2,4-dioxo-1-(tetrahydro-2H-thiopyran-4-yl)-1,4-dihydropyrido[2,3-d]pyrimidin-3(2H)-yl]cyclohexyl}quinoline-8-carboxamide]
10 | 0.674 nM | O=C(N[C@H]1CC[C@@H](n2c(=O)c3cc(F)cnc3n(C3CCSCC3)c2=O)CC1)c1cc2ccccn2n1 [Example 4, N-{cis-4-[6-fluoro-2,4-dioxo-1-(tetrahydro-2H-thiopyran-4-yl)-1,4-dihydropyrido[2,3-d]pyrimidin-3(2H)-yl]cyclohexyl}pyrazolo[1,5-a]pyridine-2-carboxamide]
11 | 1.35 nM | O=C(N[C@H]1CC[C@@H](n2c(=O)c3cc(F)cnc3n(C3CCSCC3)c2=O)CC1)c1n[nH]c2ccccc12 [Example 5, N-{cis-4-[6-fluoro-2,4-dioxo-1-(tetrahydro-2H-thiopyran-4-yl)-1,4-dihydropyrido[2,3-d]pyrimidin-3(2H)-yl]cyclohexyl}-1H-indazole-3-carboxamide]
12 | 1.02 nM | O=C(CNC(=O)c1ccccc1O)N[C@H]1CC[C@@H](n2c(=O)c3cc(F)cnc3n(C3CCSCC3)c2=O)CC1 [Example 6, N-[2-({cis-4-[6-fluoro-2,4-dioxo-1-(tetrahydro-2H-thiopyran-4-yl)-1,4-dihydropyrido[2,3-d]pyrimidin-3(2H)-yl]cyclohexyl}amino)-2-oxoethyl]-2-hydroxybenzamide]
13 | 0.874 nM | COc1ccc(C(=O)N[C@H]2CC[C@@H](n3c(=O)c4cc(F)cnc4n(C4CCSCC4)c3=O)CC2)cc1O [Example 7, N-{cis-4-[6-fluoro-2,4-dioxo-1-(tetrahydro-2H-thiopyran-4-yl)-1,4-dihydropyrido[2,3-d]pyrimidin-3(2H)-yl]cyclohexyl}-3-hydroxy-4-methoxybenzamide]
14 | 1.62 nM | O=C(Cc1cccc(O)c1)N[C@H]1CC[C@@H](n2c(=O)c3cc(F)cnc3n(C3CCSCC3)c2=O)CC1 [Example 8, N-{cis-4-[6-fluoro-2,4-dioxo-1-(tetrahydro-2H-thiopyran-4-yl)-1,4-dihydropyrido[2,3-d]pyrimidin-3(2H)-yl]cyclohexyl}-2-(3-hydroxyphenyl)acetamide]
15 | 3.75 nM | Cc1ccc(C(=O)N[C@H]2CC[C@@H](n3c(=O)c4cc(F)cnc4n(C4CCSCC4)c3=O)CC2)c(O)c1 [Example 9, N-{cis-4-[6-fluoro-2,4-dioxo-1-(tetrahydro-2H-thiopyran-4-yl)-1,4-dihydropyrido[2,3-d]pyrimidin-3(2H)-yl]cyclohexyl}-2-hydroxy-4-methylbenzamide]
16 | 1.12 nM | Cc1ccc(C(=O)N[C@H]2CC[C@@H](n3c(=O)c4cc(F)cnc4n(C4CCSCC4)c3=O)CC2)cc1O [Example 10, N-{cis-4-[6-fluoro-2,4-dioxo-1-(tetrahydro-2H-thiopyran-4-yl)-1,4-dihydropyrido[2,3-d]pyrimidin-3(2H)-yl]cyclohexyl}-3-hydroxy-4-methylbenzamide]
17 | 1.61 nM | COc1cc(C(=O)N[C@H]2CC[C@@H](n3c(=O)c4cc(F)cnc4n(C4CCSCC4)c3=O)CC2)ccc1O [Example 11, N-{cis-4-[6-fluoro-2,4-dioxo-1-(tetrahydro-2H-thiopyran-4-yl)-1,4-dihydropyrido[2,3-d]pyrimidin-3(2H)-yl]cyclohexyl}-4-hydroxy-3-methoxybenzamide]
18 | 0.887 nM | O=C(N[C@H]1CC[C@@H](n2c(=O)c3cc(F)cnc3n(C3CCSCC3)c2=O)CC1)[C@H](O)C1CCCCC1 [Example 12, (2R)-2-cyclohexyl-N-{cis-4-[6-fluoro-2,4-dioxo-1-(tetrahydro-2H-thiopyran-4-yl)-1,4-dihydropyrido[2,3-d]pyrimidin-3(2H)-yl]cyclohexyl}-2-hydroxyacetamide]
19 | 1.8 nM | O=C(N[C@H]1CC[C@@H](n2c(=O)c3cc(F)cnc3n(C3CCSCC3)c2=O)CC1)c1cccc(O)c1 [Example 14, N-{cis-4-[6-fluoro-2,4-dioxo-1-(tetrahydro-2H-thiopyran-4-yl)-1,4-dihydropyrido[2,3-d]pyrimidin-3(2H)-yl]cyclohexyl}-3-hydroxybenzamide]
20 | 1.75 nM | O=C(Cc1ccc(O)cc1)N[C@H]1CC[C@@H](n2c(=O)c3cc(F)cnc3n(C3CCSCC3)c2=O)CC1 [Example 15, N-{cis-4-[6-fluoro-2,4-dioxo-1-(tetrahydro-2H-thiopyran-4-yl)-1,4-dihydropyrido[2,3-d]pyrimidin-3(2H)-yl]cyclohexyl}-2-(4-hydroxyphenyl)acetamide]
21 | 1.69 nM | O=C(N[C@H]1CC[C@@H](n2c(=O)c3cc(F)cnc3n(C3CCSCC3)c2=O)CC1)c1ccc(O)cc1 [Example 16, N-{cis-4-[6-fluoro-2,4-dioxo-1-(tetrahydro-2H-thiopyran-4-yl)-1,4-dihydropyrido[2,3-d]pyrimidin-3(2H)-yl]cyclohexyl}-4-hydroxybenzamide]
22 | 4.65 nM | O=C(N[C@H]1CC[C@@H](n2c(=O)c3cc(F)cnc3n(C3CCSCC3)c2=O)CC1)c1ccccc1O [Example 17, N-{cis-4-[6-fluoro-2,4-dioxo-1-(tetrahydro-2H-thiopyran-4-yl)-1,4-dihydropyrido[2,3-d]pyrimidin-3(2H)-yl]cyclohexyl}-2-hydroxybenzamide]
23 | 2.15 nM | O=C(N[C@H]1CC[C@@H](n2c(=O)c3cc(F)cnc3n(C3CCSCC3)c2=O)CC1)C1CCCCC1 [Example 18, N-{cis-4-[6-fluoro-2,4-dioxo-1-(tetrahydro-2H-thiopyran-4-yl)-1,4-dihydropyrido[2,3-d]pyrimidin-3(2H)-yl]cyclohexyl}cyclohexanecarboxamide]
24 | 2.53 nM | O=C(CCc1cccc(O)c1)N[C@H]1CC[C@@H](n2c(=O)c3cc(F)cnc3n(C3CCSCC3)c2=O)CC1 [Example 19, N-{cis-4-[6-fluoro-2,4-dioxo-1-(tetrahydro-2H-thiopyran-4-yl)-1,4-dihydropyrido[2,3-d]pyrimidin-3(2H)-yl]cyclohexyl}-3-(3-hydroxyphenyl)propanamide]

Source: patent US20090233907A1, “Pyridopyrimidine Derivatives and Their Use as PDE4 Inhibitors” (ASTRAZENECA AB, priority 2006, published 2009)
